From patent US20190022043A1, “METHODS OF USING CASPASE INHIBITORS IN TREATMENT OF LIVER DISEASE” (Conatus Pharmaceuticals Inc., priority 2015, published 2019)

Tests used:
Type in all cases: in vivo, human
[1] = system: caspase-driven cell death (cCK18, caspase 3/7, flCK18); test: Phase 2 clinical trial in liver cirrhosis: mechanism-based biomarkers (cCK18, caspase 3/7, flCK18); details: overall patient population
Method: (§1) A double-blind, placebo-controlled Phase 2 clinical trial was conducted at 26 U.S. sites and enrolled 86 patients with liver cirrhosis due to different etiologies, mild to moderate liver impairment as determine by Child Pugh classification and baseline MELD scores of 11 to 18. Patients were randomized 1:1 to receive either 25 mg of emricasan (IDN-6556) or placebo orally twice daily for three months. Endpoints included a change from baseline in cCK18 and changes from baseline in MELD and Child-Pugh scores, which are composite scores of laboratory parameters associated with liver synthetic and excretory function, such as serum albumin levels, international normalized ratio (INR) and total bilirubin levels.
(§2) Among the 86 subjects enrolled and receiving study drug, liver cirrhosis etiologies included alcohol (39%), hepatitis C virus (29%), non-alcoholic steatohepatitis, or NASH (23%), and other causes (9%). Baseline MELD scores were […] in 78% of enrolled subjects and >15 in 22% of enrolled subjects. Baseline Child-Pugh status was A in 43% of subjects and B in 56% of subjects.

[2] = system: patients with liver cirrhosis; test: Phase 2 clinical trial in liver cirrhosis: common indicators of liver damage (ALT, AST); details: overall patient population
Method: as §1, §2

[3] = system: patients with liver cirrhosis; test: Phase 2 clinical trial in liver cirrhosis: liver function (MELD score, Child-Pugh score, total bilirubin, INR, albumin); details: for INR Change at Month 3 / Total bilirubin Change at Month 3 / Albumin Change at Month 3 / Child-Pugh score Change at Month 3 / MELD score Change at Month 3: 25 mg orally twice daily, three months, LOCF
Method: as §1, §2
The overall trends were driven by statistically significant improvements in MELD and Child-Pugh scores in a high medical need subgroup of patients with baseline MELD scores ≥15, the established prerequisite for listing a patient for liver transplant.

[4] = baseline MELD ≥15 subgroup, after three months of treatment, placebo two of ten

## C[C@H](NC(=O)C(=O)Nc1ccccc1C(C)(C)C)C(=O)N[C@@H](CC(=O)O)C(=O)COc1c(F)c(F)cc(F)c1F [Emricasan, (3S)-3-[N—(N′-(2-tert-Butylphenyl) Oxamyl)Alaninyl]Amino-5-(2′,3′,5′,6′-Tetrafluorophenoxy)-4-Oxopentanoic Acid]
[1]
  other mechanism-based biomarkers (caspase 3/7, flCK18): positive changes
[1]; N = 44, 25 mg orally twice daily for three months, last observation carried forward, baseline 289 U/L (geometric mean), p 0.04 vs placebo
  cCK18 Change at Month 3: −4.6%
[1]; N = 44, 25 mg orally twice daily, three months, LOCF, baseline 714 U/L, p 0.005 vs placebo
  flCK18 Change at Month 3: −18%
[1]; N = 44, 25 mg orally twice daily, three months, LOCF, baseline 2656 RLU, p <0.0001 vs placebo
  Caspase 3/7 Change at Month 3: −45.5%
[1]; adjusted for baseline MELD score and disease etiology, p=0.04
  caspase-cleaved cytokeratin 18 (cCK18) vs. placebo: statistically significant reduction
[2]
  common indicators of liver damage (ALT, AST): positive changes
[2]; N = 44, 25 mg orally twice daily, three months, LOCF, baseline 27.5, p 0.03 vs placebo
  ALT Change at Month 3 (median change): −3.0 U/L
[2]; N = 44, 25 mg orally twice daily, three months, LOCF, baseline 50.0, p 0.08 vs placebo
  AST Change at Month 3 (median change): −5.0 U/L
[3]; baseline MELD score ≥15 patient population, N = 9, baseline 1.54, p 0.0004 vs placebo
  INR Change at Month 3: −0.14
[3]; baseline MELD score ≥15 patient population, N = 9, baseline 3.17, p 0.03 vs placebo
  Total bilirubin Change at Month 3: -0.55 mg/dL
[3]; baseline MELD score ≥15 patient population, N = 9, baseline 3.41, p 0.78 vs placebo
  Albumin Change at Month 3: +0.07 g/dL
[3]; baseline MELD score ≥15 patient population, N = 9, baseline 7.8, p 0.003 vs placebo
  Child-Pugh score Change at Month 3: −0.6
[3]; baseline MELD score ≥15 patient population, N = 9, baseline 16.0, p 0.003 vs placebo
  MELD score Change at Month 3: −1.6
[3]; baseline MELD ≥15 subgroup, after three months of treatment, placebo four out of ten (at least one point increase)
  patients with an increase in Child-Pugh score: none of nine
[3]; baseline MELD ≥15 subgroup, after three months of treatment, placebo one out of ten
  patients who achieved a reduction in MELD score to below 14: Four of nine
[3]; [4]
  patients who achieved at least a 2 point reduction in MELD score: Six of nine
  patients with at least a one point reduction in Child Pugh score: Four of nine
[3]; overall patient population, N = 44, baseline 1.33, p 0.12 vs placebo
  INR Change at Month 3: −0.02
[3]; overall patient population, N = 44, baseline 2.25, p 0.19 vs placebo
  Total bilirubin Change at Month 3: -0.05 mg/dL
[3]; overall patient population, N = 44, baseline 3.46, p 0.38 vs placebo
  Albumin Change at Month 3: +0.02 g/dL
[3]; overall patient population, N = 44, baseline 6.9, p 0.10 vs placebo
  Child-Pugh score Change at Month 3: −0.2
[3]; overall patient population, N = 44, baseline 12.8, p 0.50 vs placebo
  MELD score Change at Month 3: −0.1
